Assay results taken from patent publication US20170321285A1, “NLRC5 AS A BIOMARKER FOR CANCER PATIENTS AND A TARGET FOR CANCER THERAPY” (THE TEXAS A&M UNIVERSITY SYSTEM, priority 2016, published 2017).

Test system: hla-b promoter
Experiment: hla-b promoter dual-luciferase reporter assay with nlrc5 mutant plasmids in HEK293T cells
Assay type: cell-based, human
Settings: 100 ng mutant plasmid with HLA-B250 luciferase reporter, 48 h post-transfection (FIG. 3H)
Description: FIGS. 3A-3J. Copy number loss and somatic mutations in nlrc5 are associated with reduced MHC class I gene expressions. FIG. 3A. Percentage of cancer patients who carry nlrc5 copy number (CN) loss among 20 TCGA tumor types. Based on GISTIC values, samples were classified into nlrc5 diploid group and CN loss group: GISTIC 0, diploid; −1 and −2, CN loss. FIG. 3B. Percentage of cancer patients who carry copy number (CN) loss of various MHC class I-related genes for 10 TCGA tumor types for which data are available (bladder, breast, colon, head/neck, lung adeno, lung squamous, ovarian, prostate, rectal and uterine cancer, top) and ovarian cancer (bottom). Statistical significance was determined by chi-square test. *: p<0.01, **: p<0.0001. FIG. 3C. Heatmap showing gene expression of nlrc5 and hla-b in nlrc5 diploid group (n=2028) or CN loss group (n=890) for 17 TCGA tumor types in which the nlrc5 promoter is not methylated. FIG. 3D. The box plots showing nlrc5 and MHC class I-related gene expression in the nlrc5 diploid group or CN loss group in breast cancer patients. FIG. 3E. Pie chart representing the percentage distribution of different types of mutations in nlrc5 in various cancer patients (n=7752). FIG. 3F. Mutation rate in 20 TCGA tumor types. FIG. 3G. Representation of nlrc5 indicating 13 mutations found in at least 2 different cancer patients. FIG. 3H. HEK293T cells were co-transfected with either empty control vector or the respective nlrc5 mutant plasmid with hla-b reporter plasmid and hla-b promoter activity was assessed by the dual-luciferase assay and normalized against Renilla […] activity. Data are representative of two independent experiments performed in duplicate and is plotted as fold induction with respect to the control vector. Error bar: ±sd. FIG. 3I. […] FIG. 3J. Box plots for the expression level of MHC class I-related genes normalized by the expression level of nlrc5 in 20 TCGA tumor types that are either nlrc5 wild-type or nlrc5 mutant. FIGS. 3D-3J. The horizontal line corresponds to the median, the box to the 25th-75th percentile and the lines to the confidence interval (5th-95th percentile).
The expression vector for human gfp-nlrc5 in pcDNA3.1 was previously described. The reporter gene construct used for MHC class I promoter activity (HLA-B250) was also previously described. Selected nlrc5 mutants were constructed using pcDNA3.1-gfp-nlrc5 by site-directed mutagenesis using the primers listed in Table 3. All the plasmids were confirmed by sequencing (Gene Technologies Laboratory).
HEK293T cells were cultured in DMEM supplemented with 10% FBS and penicillin/streptomycin (Life Technologies) at 37° C. with 5% CO2. Cells were transiently transfected using polyethylenimine at a DNA/polyethylenimine ratio of 1:3 in serum-free media. For luciferase assay, HEK293T cells were split at a density of 5×10^4 cells/well into 24-well plates 1 day prior to transfection. Cells were co-transfected using 100 ng of gfp-nlrc5 or 100 ng of the specified nlrc5 mutant plasmids along with 100 ng of HLA-B250 luciferase reporter construct. 20 ng promoterless Renilla luciferase vector (pRL-null; Promega) were included for normalization of transfection efficiency. Cells were harvested 48 h post-transfection, and cell lysates were analyzed using the Dual-Luciferase Reporter Assay System (Promega) according to the manufacturer's instructions.

| Molecule | activity of the NLRC5 protein as compared to the wild-type NLRC5 protein (induction of hla-b promoter activity) |
| --- | --- |
| R262C: NLRC5 protein mutant found in cancer patients, expressed from gfp-nlrc5 vector made by site-directed mutagenesis | reduces the activity |
| R574H: NLRC5 protein mutant found in cancer patients, expressed from gfp-nlrc5 vector made by site-directed mutagenesis | does not reduce or increases the activity |
| S496F: NLRC5 protein mutant found in cancer patients, expressed from gfp-nlrc5 vector made by site-directed mutagenesis | does not reduce or increases the activity |
| D884N: NLRC5 protein mutant found in cancer patients, expressed from gfp-nlrc5 vector made by site-directed mutagenesis | does not reduce or increases the activity |
| R550W: NLRC5 protein mutant found in cancer patients, expressed from gfp-nlrc5 vector made by site-directed mutagenesis | reduces the activity |
| Q1847*: NLRC5 nonsense mutant found in cancer patients, expressed from gfp-nlrc5 vector made by site-directed mutagenesis | reduces the activity |
| A737D: NLRC5 protein mutant found in cancer patients, expressed from gfp-nlrc5 vector made by site-directed mutagenesis | reduces the activity |
| T1173M: NLRC5 protein mutant found in cancer patients, expressed from gfp-nlrc5 vector made by site-directed mutagenesis | does not reduce or increases the activity |
| R386W: NLRC5 protein mutant found in cancer patients, expressed from gfp-nlrc5 vector made by site-directed mutagenesis | does not reduce or increases the activity |
| R1830C: NLRC5 protein mutant found in cancer patients, expressed from gfp-nlrc5 vector made by site-directed mutagenesis | reduces the activity |
| L181P: NLRC5 protein mutant found in cancer patients, expressed from gfp-nlrc5 vector made by site-directed mutagenesis | reduces the activity |
| A1512T: NLRC5 protein mutant found in cancer patients, expressed from gfp-nlrc5 vector made by site-directed mutagenesis | does not reduce or increases the activity |

Test system: cancer cell lines
Experiment: not given
Settings: 3 μM 5-azacytidine, various cancer cell lines, qPCR (FIG. 2A)

| Molecule | expression of hla-b | expression of nlrc5 |
| --- | --- | --- |
| Nc1ncn([C@@H]2O[C@H](CO)[C@@H](O)[C@H]2O)c(=O)n1 [5-Azacitidine, 4-amino-1-β-D-ribofuranosyl-1,3,5-triazin-2(1H)-one] | upregulation | upregulation |
